In ChEMBL document CHEMBL2331136, “Apoptosis-inducing activity of the actin-depolymerizing agent aplyronine A and its side-chain derivatives” (Bioorg Med Chem Lett, 2013) one finds IC50 and Activity data, which are given here for 6 compounds.

Active and inactive are the calls of the source. The rule behind the calls is not given here.

A short description of assay [1]: Induction of F-actin (unknown origin) polymerization after 1 hr by spectrofluorometric analysis. The arrangement: species or system Homo sapiens.
In assay [2] the test system is HL-60. Description: Induction of apoptosis in human HL60 cells assessed as activation of caspase-3 at 0.1 to 1 nM after 18 hrs by spectrophotometric analysis. The assay is classed as functional, cell-based.
The nature of assay [3]: Cytotoxicity against human HeLaS3 cells after 72 hrs by MTT assay. To be noted: HeLa S3, 72 h. The assay is classed as functional, cell-based. Background: Tetrazolium dyes change colour on reduction, which living cells bring about.
The subject of assay [4] is HL-60. Put plainly: Cytotoxicity against human HL60 cells after 24 hrs by trypan blue dye exclusion assay. The assay is classed as functional, cell-based.
Assay [5] has as its system HL-60. Put plainly: Induction of apoptosis in human HL60 cells assessed as disruption and aggregation of actin filaments at 0.1 nM after 12 hrs using rhodamine-phalloidin staining by fluorescence microscopy. The assay is classed as functional, cell-based.
The test system of assay [6] is HeLa S3. Description: Induction of apoptosis in human HeLaS3 cells assessed as DNA fragmentation after 24 hrs by agarose gel electrophoresis. It is filed as functional, cell-based.
Assay [7] relates to HL-60. Put plainly: Induction of apoptosis in human HL60 cells assessed as nuclear shrinkage and fragmentation at 1 nM after 12 hrs using rhodamine-phalloidin staining by fluorescence microscopy in presence of Z-VAD-FMK. It is filed as functional, cell-based.
Assay [8] has as its system HL-60. Put plainly: Induction of apoptosis in human HL60 cells assessed as nuclear shrinkage and fragmentation at 1 nM after 12 hrs using rhodamine-phalloidin staining by fluorescence microscopy. The assay is classed as functional, cell-based.
Assay [9] relates to HL-60. Put plainly: Induction of apoptosis in human HL60 cells assessed as disruption and aggregation of actin filaments at 1 nM after 12 hrs using rhodamine-phalloidin staining by fluorescence microscopy. The assay is classed as functional, cell-based.
Assay [10] deals with HL-60. Description: Cytotoxicity against human HL60 cells after 24 hrs by trypan blue dye exclusion assay in presence of Z-VAD-FMK. The assay is classed as functional, cell-based.
In assay [11] the test system is HeLa S3. Put plainly: Cytotoxicity against human HeLaS3 cells after 48 hrs by trypan blue dye exclusion assay in presence of Z-VAD-FMK. The assay is classed as functional, cell-based.
For assay [12], the system named is HeLa S3. Description: Cytotoxicity against human HeLaS3 cells after 48 hrs by trypan blue dye exclusion assay. It is filed as functional, cell-based.
Assay [13] has as its system HL-60. Description: Induction of apoptosis in human HL60 cells assessed as DNA fragmentation after 24 hrs by agarose gel electrophoresis. It is filed as functional, cell-based.
For assay [14], the system named is HL-60. Description: Cytotoxicity against human HL60 cells after 72 hrs by MTT assay. It is filed as functional, cell-based. The conditions noted are these: HL-60, 72 h.
For assay [15], the system named is HL-60. Put plainly: Induction of apoptosis in human HL60 cells assessed as nuclear shrinkage and fragmentation at 30 uM after 12 hrs using rhodamine-phalloidin staining by fluorescence microscopy in presence of Z-VAD-FMK. It is filed as functional, cell-based.
The test system of assay [16] is HL-60. Description: Induction of apoptosis in human HL60 cells assessed as disruption and aggregation of actin filaments at 30 uM after 12 hrs using rhodamine-phalloidin staining by fluorescence microscopy. It is filed as functional, cell-based.
The test system of assay [17] is HL-60. Put plainly: Induction of apoptosis in human HL60 cells assessed as nuclear shrinkage and fragmentation at 30 uM after 12 hrs using rhodamine-phalloidin staining by fluorescence microscopy. The assay is classed as functional, cell-based.
The test system of assay [18] is HL-60. Put plainly: Induction of apoptosis in human HL60 cells assessed as activation of caspase-3 at 10 to 30 uM after 18 hrs by spectrophotometric analysis. It is filed as functional, cell-based.

One may read the IC50 as the midpoint of a concentration-inhibition curve. Low readings indicate inhibition by little substance, high ones a need for much substance. For the compound `COCC(C(=O)O[C@@H]1C/C=C/C=C/C(=O)O[C@H]([C@@H](C)[C@@H](O)[C@@H](C)CC[C@@H](OC(=O)C(C)N(C)C)[C@H](C)[C@H](OC(C)=O)[C@H](C)/C=C/N(C)C=O)C/C=C/[C@H](OC)C[C@H](C)C/C=C(\C)[C@@H](OC)CC[C@@H](C)[C@@H](O)[C@@H]1C)N(C)C` (some centres not stated) [APLYRONINE A], the values for the IC50 in assay [1] and in assay [3] were 1.6 µM and 0.00029 µM, respectively. Further, the result in the assay with HL-60 [2], in the assay with HL-60 [5], in the assay with HeLa S3 [6], with HL-60 [8], with HL-60 [9] and in the assay on HL-60 [13] was Active. Also, the Activity entry in the assay with HL-60 [4] and with HeLa S3 [12] was “Dose-dependent effect” throughout. The result in the assay on HL-60 [7], with HL-60 [10] and in the assay with HeLa S3 [11] was inactive.

For `CC(=O)O[C@@H]([C@@H](C)[C@@H](/C=C/c1ccccc1)OC(=O)[C@H](C)N(C)C)[C@H](C)/C=C/N(C)C=O`, the figures for the IC50 (in assay [1]; in the assay with HL-60 [14]) were 47 µM and 27.5 µM, respectively.

With `CC(=O)O[C@@H]([C@@H](C)[C@@H](/C=C/CCc1ccccc1)OC(=O)[C@H](C)N(C)C)[C@H](C)/C=C/N(C)C=O`, the results for the IC50 (in assay [1]; with HL-60 [14]) were 85 µM and 53 µM, respectively.

Consider `CC(=O)O[C@@H]([C@@H](C)[C@@H](/C=C/CCCCc1ccccc1)OC(=O)[C@H](C)N(C)C)[C@H](C)/C=C/N(C)C=O`, for which the outcome with HL-60 [15] and in the assay on HL-60 [10] was inactive. Further, the outcome with HL-60 [16], with HL-60 [17], with HL-60 [4], with HL-60 [18] and with HL-60 [13] was Active. For the same compound, the values for the IC50 (in assay [1]; in the assay with HL-60 [14]) were 21 µM and 12.7 µM, respectively.

Take `C/C=C/[C@@H](OC(=O)[C@H](C)N(C)C)[C@H](C)[C@H](OC(C)=O)[C@H](C)/C=C/N(C)C=O`: the IC50 in assay [1] is 210 µM; in the assay with HL-60 [14], 240 µM.

Turning to `COC[C@@H](OC)C(=O)O[C@H](CC[C@H](C)[C@@H](C[C@@H]1OC(=O)C[C@@H](O)C/C=C/C(=O)[C@H](C)[C@H](OC)c2coc(n2)-c2coc(n2)-c2coc(n2)/C=C/C[C@H](OC)[C@H]1C)OC)[C@H](C)[C@H](OC(C)=O)[C@H](C)/C=C/N(C)C=O` [MYCALOLIDE B], the IC50 in assay [1] was determined as 1.7 µM; in [3] it was 0.052 µM; with HL-60 [14] it was 0.0047 µM. In addition, the Activity result with HL-60 [4] and in the assay on HeLa S3 [12] was “Dose-dependent effect” throughout. For the same compound, the result with HeLa S3 [6] and in the assay on HL-60 [13] was Active. Besides, the result with HL-60 [10] and with HeLa S3 [11] was inactive.
